{"source": "patent US20080051379A1", "about": "“Compositions and Methods for the Treatment of Peripheral B-Cell Neoplasms” (Trustees of Boston University, priority 2004, published 2008)", "key": {"B-CLL cells": {"tested_on": "B-CLL cells", "assay": "Hoechst 33342 apoptosis assay, B-CLL cells", "type": "cell-based, human", "conditions": "for apoptosis by Hoechst 33342 analysis: 48 hrs culture, Roli 10 μM, HC 1 μM", "protocol": "FIGS. 1A-D show the effects of the cyclic nucleotide phosphodiesterase inhibitors rolipram, RO20-1724 and cilostamide on hydrocortisone and dexamethasone-induced apoptosis in B-CLL. In FIG. 1A, leukemic cells from 11 B-CLL patients were assessed for apoptosis by […] analysis after 48 hrs culture in media alone (No treatment), 10 μM rolipram (Roli), 1 μM hydrocortisone (HC) or a combination of the two drugs (Roli+HC). In FIGS. 1B and 1C, leukemic cells from five patients with B-CLL were cultured in media alone or with a dose titration of hydrocortisone (1B: solid line) or dexamethasone (1C: solid line), followed by assessment for apoptosis by Hoechst 33342 FACS analysis at 48 hours. Using the same experimental conditions, the effect of addition of 10 μM rolipram (thick dashed line) to the glucocorticoids was also assessed. In FIG. 1D, the apoptotic effects of the PDE4 inhibitor RO20-1724 (RO20) (10 μM) or the PDE3 inhibitor cilostamide (Cilost) (10 μM) were assessed on B-CLL cells when combined with 1 μM hydrocortisone. Data represent the mean±SEM of triplicate samples.\nBlood samples were obtained by IRB-approved consent from flow cytometry-confirmed B-CLL patients that were either untreated or for whom at least one month had elapsed since chemotherapy. Patients with active infections or other serious medical conditions were not included in this study.\nCCRF-CEM cells were obtained from ATCC^27. Leukemic or normal mononuclear cells were obtained by centrifugation over Histopaque 1077 (Sigma Chemical Company, St. Louis, Mo.). For purification of T cells, whole mononuclear cells from normal subjects were incubated with magnetic beads coated with appropriate antibodies, then positively purified using a magnet (Miltenyi). Cells were cultured in RPMI 1640 media (Biowhittaker, Walkersville, Md.) supplemented with 10% fetal calf serum, 50 μMol/L 2-mercaptoethanol, 2 mMol/L L-glutamine, 10 mM Hepes pH 7.4, […] (Sigma Chemical Company, St. Louis, Mo.). For isolation of glucocorticoid resistant clones, parental CCRF-CEM cells were treated with 1 μM dexamethasone for 10 days, and surviving cells diluted to ≦one cell/well in a 96-well flat-bottom tissue culture plate, grown for three weeks in media supplemented with 20% fetal calf serum and 1% insulin-transferrin-selenium (GIBCO), and then transferred to regular growth medium. […] For isolation of glucocorticoid-sensitive clones, the same procedure was used, except that treatment with dexamethasone was omitted. A glucocorticoid-sensitive subclone (CEM-S2) was inhibited in its survival by dexamethasone with an IC50=0.007 μM.\nHoechst 33342 and DiOC6(3) apoptosis assays were performed as previously described^22,28. For CCRF-CEM cell survival assays, cells were plated at a density of 3×10^4/well in 96-well flat-bottom plates in the presence of test reagents or vehicle in 0.1 mL media. Following incubation for 72 hrs, 20 μl of a 20:1 MTS (2 mg/mL)/PMS (0.92 mg/ml) solution was added to each well, and the plates incubated for 2 hrs at 37°. The absorbance (O.D.) of the formazan product was determined at 492 nm using a plate reader (Titertek Multiscan Plus, Labsystems). Percent cell viability was calculated as follows: (O.D. control sample−O.D. blank)/(O.D. test sample−O.D. blank)×100. All assays were performed in triplicate."}, "[1]": {"tested_on": "PDE4A, PDE4B or PDE4D expression in B-CLL cells", "assay": "Western analysis of PDE4 isoforms, B-CLL cells", "type": "cell-based, human", "conditions": "10 μM rolipram, 18 hours", "protocol": "B-CLL and CCRF-CEM cells were incubated for 18 hours with media alone, 10 μM rolipram, 10 μM forskolin (Fsk), 1 μM hydrocortisone (HC), or the same concentration of rolipram combined with 1 μM hydrocortisone (Roli+HC) or 10 μM forskolin (Roli+Fsk). Lysates of the cells were then assessed for expression of PDE4A, PDE4B or PDE4D by Western analysis. Equal loading of samples was verified by immunoblotting for tubulin.\n30 million B-CLL cells or 10 million CCRF-CEM cells were incubated for 18 hours in media alone or with the addition of drugs as indicated in the text. Western analysis was then carried out as previously described^30. The PDE4A (66C12H), PDE4B (96G7A) and PDE4D (61D10E) antibodies were kind gifts from Dr. Sharon Wolda (ICOS, Bothell, Wash.) and have been previously described^30 31."}}, "data": [{"compound": "COc1ccc(C2CNC(=O)C2)cc1OC1CCCC1", "note": "(stereo not drawn) [rolipram, 4-(3-cyclopentyloxy-4-methoxyphenyl)-2-pyrrolidone]", "values": [{"measurement": "B-CLL apoptosis, rolipram added to dexamethasone", "setting": "B-CLL cells; 10 μM rolipram + dexamethasone dose titration, 48 hours", "value": "augmented B-CLL apoptosis beyond the levels observed with either agent alone"}, {"measurement": "apoptosis by Hoechst 33342 analysis", "setting": "B-CLL cells; B-CLL patient #1, No Rx 10", "value": 17, "unit": "%"}, {"measurement": "apoptosis by Hoechst 33342 analysis", "setting": "B-CLL cells; B-CLL patient #2, No Rx 11", "value": 13, "unit": "%"}, {"measurement": "apoptosis by Hoechst 33342 analysis", "setting": "B-CLL cells; B-CLL patient #3, No Rx 13", "value": 24, "unit": "%"}, {"measurement": "apoptosis by Hoechst 33342 analysis", "setting": "B-CLL cells; B-CLL patient #4, No Rx 23", "value": 34, "unit": "%"}, {"measurement": "apoptosis by Hoechst 33342 analysis", "setting": "B-CLL cells; B-CLL patient #5, No Rx 25", "value": 37, "unit": "%"}, {"measurement": "apoptosis by Hoechst 33342 analysis", "setting": "B-CLL cells; B-CLL patient #6, No Rx 27", "value": 45, "unit": "%"}, {"measurement": "apoptosis by Hoechst 33342 analysis", "setting": "B-CLL cells; B-CLL patient #7, No Rx 31", "value": 67, "unit": "%"}, {"measurement": "apoptosis by Hoechst 33342 analysis", "setting": "B-CLL cells; B-CLL patient #8, No Rx 33", "value": 62, "unit": "%"}, {"measurement": "apoptosis by Hoechst 33342 analysis", "setting": "B-CLL cells; B-CLL patient #9, No Rx 35", "value": 81, "unit": "%"}, {"measurement": "apoptosis by Hoechst 33342 analysis", "setting": "B-CLL cells; B-CLL patient #10, No Rx 44", "value": 58, "unit": "%"}, {"measurement": "apoptosis by Hoechst 33342 analysis", "setting": "B-CLL cells; B-CLL patient #11, No Rx 61", "value": 75, "unit": "%"}, {"measurement": "augmentation of induction of apoptosis relative to the increment induced with 100 μM hydrocortisone alone", "setting": "B-CLL cells; addition of 10 μM rolipram to 100 μM hydrocortisone, five patients", "value": "40±18", "unit": "%"}, {"measurement": "expression of 63 and 68 kDa form of PDE4D", "setting": "[1]", "value": "either no or very low level rolipram-induced expression"}, {"measurement": "expression of 63 and 68 kDa forms of PDE4B", "setting": "[1]", "value": "rolipram-inducible expression"}]}]}
